Values quoted from earlier work, collected in patent publication US12661367B2, “Streptomyces spororaveus strain and a new antibiotics against bacteria and fungi” (National Taipei University of Technology, priority 2022, dated 2026).

Tests used:
[1] = orally used

solubility in water: nearly insoluble in water
bioavailability [1]: low bioavailability
SMILES: C[C@@H]1C/C=C/C=C/C=C/C=C/[C@H](O[C@@H]2O[C@H](C)[C@@H](O)[C@H](N)[C@@H]2O)C[C@@H]2O[C@](O)(C[C@@H](O)C[C@H]3O[C@@H]3/C=C/C(=O)O1)C[C@H](O)[C@H]2C(=O)O [natamycin]
